In patent US20250161346A1, “METHODS FOR TREATING HEPATITIS B VIRUS INFECTION” (KAOHSIUNG MEDICAL UNIVERSITY, priority 2022, published 2025):
Entries after “also recorded” stand apart in the source; their conditions may differ.

Key:
HBV [1] = assay: Southern and Northern blot analyses of HBV DNA synthesis and capsid-associated pgRNA in the infection assay; format: cell-based, hepatitis B virus; settings: cotreatment, 0.5-1 μM
Experimental: (§1) However, HBc is strongly arrested in the nucleus by about 150-fold at 9 dpi, when co-treated with compounds KPT-330 or KPT-335. These two drugs are CRM1 inhibitors. Green: HBc. Red: NTCP. Blue: DAPI. […] Briefly, the infected culture of HepG2-NTCP-AS cells are treated with KPT-335 (0.5-1 μM) at 0, 3, and 5 dpi continuously until cell harvesting. Media are collected for ELISA of HBsAg and HBeAg. Cells are harvested for further analysis by Southern blot (SB) and Northern blots (NB). […] The level of total cytoplasmic viral RNA is reduced moderately by treatment with SINE compounds (1 μM). Comparisons of relaxed circular (RC) DNA banding intensities are as described in FIGS. 1A-1B legend, and normalized here to the no drug treatment control. SS: […].
(§2) The results in FIGS. 1A-1B by genetic mutant analysis was also supported by the results from the CRM1 drug treatment experiment (FIGS. 2A-2F). KPT-330 and KPT-335 are known CRM1 inhibitors. In an HBV in vitro infection system, when KPT-330 or KPT-335 were added to the cell culture before or soon after the infection with HBV, HBc was strongly arrested in the nucleus by immunofluorescence microscopy (FIG. 2A). Relative to the control with no drug treatment, KPT-330 and KPT-335 could increase nuclear HBc by approximately 150-fold (FIG. 2B). HBsAg and HBeAg were HBV serum markers.

HuH-7 cells = assay: Cell proliferation by alamarBlue and CCK-8 assays; format: cell-based, human
From the text: (§3) HBV secreted a total of six different viral and subviral particles in hepatocyte cell culture (FIG. 5). The only infectious particles were the genome-containing virions, which contained envelope protein, capsids, and encapsidated relaxed circle DNA genome. In FIGS. 6A and 6B, a cartoon illustrated the analysis methods of extracellular and intracellular HBV viral and subviral particles. […] Adding drug at 1-day post infection was not effective in blocking virion secretion (FIG. 7C). The potential cytotoxicity of KPT-335 was evaluated using two different methods—Alamar Blue and CCK-8 assays (FIG. 8).

HBV [2] = assay: Intracellular WT-HBV capsid protein, capsid-associated viral RNA and DNA in the dose-response experiment; format: cell-based, hepatitis B virus; settings: 0.5 μM
Experimental: (§4) FIGS. 6A and 6B show a cartoon illustration for the analysis methods of extracellular and intracellular HBV viral and subviral particles. […] Viral and subviral particles are separated and characterized by Southern and Western blot analyses. Anti-HBc and anti-HBs antibodies are used consecutively for the same Western blot filters. Southern blot is performed in a separate agarose gel which allows the differentiation of genome-containing (G^+) from genome-free (G^−) viral and subviral particles. […] Then, the RNA/DNA signals are analyzed by Northern blot and Southern blot. 3.5 kb pgRNA: full-length 3.5 kb pre-genomic RNA. RT RNA: reverse transcripted RNA.
(§5) This mutant secretes no naked capsids. V/NC: Virions/naked capsids.
as §3

HBV [3] = assay: HBV virion secretion assay, HuH-7 cells transfected with HBV replicon, native agarose gel with Western and Southern blot; format: cell-based, hepatitis B virus
Experimental: as §4, §5
An HBV replicon plasmid is transfected into HuH-7 human hepatoma cell line. SINE compound KPT-8602 is added to the transfected culture at 0 hr post-transfection (i.e., co-treatment). Extracellular media are collected on day 5 (120 hr) post-transfection. Assays for virion secretion are as described in FIG. 6A. Secretion of naked capsids is 100-fold (10 μM/0.1 μM) less sensitive to KPT-8602 treatment than virions.
as §3

HBV [4] = assay: ELISA of HBsAg and HBeAg in medium, time course of drug treatment in HBV infection system (HepG2-NTCP-AS cells); format: cell-based, hepatitis B virus
Experimental: as §1, §2

[5] = tested on: human cytomegalovirus (HCMV); settings: by increasing the expression of type I interferon; cited from earlier work
[6] = tested on: Kaposi's sarcoma-associated herpesvirus (KSHV); settings: cited from earlier work
[7] = drug and virus added at the same time (co-treatment), 0.5-1 μM

O=C(/C=C\n1cnc(-c2cc(C(F)(F)F)cc(C(F)(F)F)c2)n1)NNc1ccccn1 [KPT-335, Verdinexor]
HBV DNA synthesis (HBV [1]): strongly inhibited
HBV RNA encapsidation (cytoplasmic capsid-associated pgRNA) (HBV [1]): strongly inhibited
formation of HBc capsids (HBV [1]): strongly inhibited
anti-proliferation effect (HuH-7 cells; below 0.25 μM, alamarBlue and CCK-8): No significant anti-proliferation effect
capsid protein (HBV [2]): no significant effect
capsid-associated RNA (RNA encapsidation) (HBV [2]): no significant effect
HBV virion secretion (HBV [3]; 0.5 μM, co-treatment): almost completely block
secretion of naked capsids, sensitivity in contrast to virions (HBV [3]; 0.1, 0.25, 0.5 and 1 μM): much less sensitive
blocking virion secretion (HBV [3]; drug added at 1-day post infection): not effective
effect on HBV (HBV [4]; added at 3 or 5 dpi): no effect
HBeAg in the medium by ELISA (HBV [4]; drug added at 3 or 5 dpi): no apparent effect
HBsAg in the medium by ELISA (HBV [4]; drug added at 3 or 5 dpi): no apparent effect
HBeAg in the medium by ELISA (HBV [4]; [7]): inhibit; also recorded: complete inhibition
HBsAg in the medium by ELISA (HBV [4]; [7]): inhibit; also recorded: complete inhibition

NC(=O)/C(=C/n1cnc(-c2cc(C(F)(F)F)cc(C(F)(F)F)c2)n1)c1cncnc1 [KPT-8602, Eltanexor]
cytotoxicity, side-by-side comparison (HuH-7 cells): less cytotoxic
HBV virion secretion (HBV [3]; 0.1 μM, co-treatment at 0 hr post-transfection, media collected day 5): blocks; also recorded: nearly completely block
inhibition of HBV virion secretion, side-by-side comparison (HBV [3]; 0.1, 0.25, 0.5 and 1 μM): more inhibitory than KPT-335
secretion of naked capsids, sensitivity in contrast to virions (HBV [3]; 0.1, 0.25, 0.5 and 1 μM): much less sensitive
potency, side-by-side comparison (HBV [3]; HBV virion secretion, HuH-7): more potent
secretion of naked capsids less sensitive than virions (10 μM/0.1 μM) (HBV [3]; HuH-7, co-treatment, day 5): 100 fold
inhibition of human cytomegalovirus (HCMV) [5]: inhibit
lytic replication of KSHV [6]: reduced
